Test results published in ChEMBL document CHEMBL3988442, “University of Dundee, Small-Polar-MMV Screening Library” (2021).
“And” between values parts separate entries of the source, which are not always exact repeats. Equal values may be shown once.

Tests used:
[1] = In vitro enzyme assay to detect hydrolysis of chlorophenol red-beta-D-[…] directly proportional to the number of Toxoplasma stably expressing beta-galactosidase; type: functional, organism-based, Toxoplasma gondii; conditions: for IC50: Toxoplasma gondii
Plasmodium falciparum = experiment: Calibr Malaria Delayed Death Assay SOP; type: functional, organism-based
Schistosoma mansoni = experiment: High throughput screening of compounds against Schistosoma mansoni motility; type: functional; design: dose or concentration left out as unconfirmed
[2] = microbe, parasite or virus in culture; conditions: Mycobacterium tuberculosis, 96 h, read-out: pIC50 (converted)
[3] = microbe, parasite or virus in culture; conditions: Mycobacterium tuberculosis, 72 h, read-out: pIC50 (converted)
ClpP1P2 = ClpP1P2 (Mycobacterium tuberculosis (strain ATCC 25618 / H37Rv), UniProt P9WPC3+P9WPC5); experiment: in vitro assay to detect presence of AMC directly proportional to the activity of ClpP1P2. GHDDI collaboration.; type: functional

Structure (SMILES) | IC50 [1] [µM] | further results
CCC(=O)N1CCN(c2nc(C)nc3c(C)nn(C)c23)CC1 | > 50.1 | 
OC(CNC1CCSCC1)c1cccc(OCc2ccccc2)c1 (centres undefined) | 17.2 | 
CC(C)(C)c1cn2c(n1)C(CNCc1cnn3ccccc13)CCC2 (centres undefined) | 2.52 | 
CCn1nc(C)c2nc(C(C)C)nc(NCCCn3ccnc3)c21 | > 50.1 | 
Fc1cc(Cl)cnc1N1CCCC(c2nccn2Cc2ccccn2)C1 (centres undefined) | > 50.1 | 
Cc1cnc(NC(=O)c2cccc(CN(C)Cc3ncccc3C)c2)s1 | 13.6 | 
CC1CN(C)CCC1=O (centres undefined) | > 50.1 | 
CC(=O)Nc1ncc(S(=O)(=O)Nc2cccc(O)c2)s1 | > 50.1 | 
Cc1nn(C)c2c(=O)n(C(C)C)c(NCCc3ccccc3)nc12 | 36.1 | 
COc1ccc(CCNC(=O)NCCCC(N)=O)cc1 | > 50.1 | 
CCCC(=O)N1CCN(C(=O)NCC)CC1 | > 50.1 | 
Cc1cc(C(=O)NCc2ccco2)nn1C | > 50.1 | 
CCCC(N)C(=O)N(C)Cc1cccc(N(C)C)c1 (centres undefined) | > 50.1 | 
CN(C(=O)NCCCN1CCCC1)C1CCN(c2ccccc2)C1=O (centres undefined) | > 50.1 | 
CNC(=O)C1(N(C)CCc2ccccc2)Cc2ccccc2C1 | 11.3 | 
O=C1CCCCN1c1ccc(S(=O)(=O)NC2CC2)cc1 | > 50.1 | 
Cc1cc(C)n(CC2CCNCC2)n1 | > 50.1 | 
CC(=O)Nc1ncc(S(=O)(=O)Nc2cccc(F)c2)s1 | > 50.1 | 
CNc1cc(-c2cccc(OC)c2)[nH]n1 | > 50.1 | 
CCOCC(C)OC(=O)c1ccnn1C (centres undefined) | > 50.1 | 
COc1ccc(NCC(=O)N2CCNC(=O)C2)c(C)c1 | > 50.1 | 
CN1CCC(NCC(O)c2cccc(OCc3ccccc3)c2)CC1 (centres undefined) | 7.98 | 
CCCc1nc(NCCCOC)c2c(n1)c(C)nn2CC | 34 | 

Structure (SMILES) | IC50 [1] [µM] | further results
CCN1C[C@H]2CCN(C(=O)NC)CC[C@H]2S1(=O)=O | > 50.1 | pIC50 [1]: 4.337
CC(=O)c1cccc(OCC(=O)Nc2cc(C)on2)c1 | > 50.1 | 
CN(C)c1ncc2c(n1)CN(C1CCSCC1)C2=O | > 50.1 | 
O=C(NCCN1CCOCC1)c1cc(-c2ccc(Cl)s2)[nH]n1 | 5.29 | 
Nc1cccnc1NCc1cccnc1 | > 50.1 | 
CCc1nnc(Nc2cc(C)nc(C3CN(C(=O)C(C)C)CCO3)c2)s1 (centres undefined) | > 50.1 | 
Cc1nc([C@H]2CCCN2)cs1 | > 50.1 | 
O=C(OCCOc1cccnc1)C1CC1 | > 50.1 | 
c1nc(N2CCNCC2)c2sccc2n1 | > 50.1 | 
c1cnc(-c2nn3c(CN4CCCCC4)nnc3s2)cn1 | > 50.1 | 
CCCNS(=O)(=O)c1nc2nc(C)cc(C)n2n1 | > 50.1 | 
Cn1ncc(C(=O)N2CCN(C(=O)c3ccco3)CC2)c1Cl | > 50.1 | 
Cc1cccc(NC(=O)[C@@H]2CCCN2)n1 | > 50.1 | 
Cc1c(C(=O)NCC2CCN(C)C2)n(C)c2c(C)cccc12 (centres undefined) | > 50.1 | 
Cc1cc(=O)n2c3c(cc(S(=O)(=O)NC4CC4)cc13)CCC2 | > 50.1 | 
CCn1c(NCc2cccnc2)nc2c(C)nn(C)c2c1=O | > 50.1 | 
CC(=O)Nc1ccc(S(=O)(=O)N2CCC(N)CC2)cc1 | > 50.1 | 
COC(=O)c1cnc(F)cn1 | > 50.1 | 
COc1ccccc1NC(=O)CC#N | > 50.1 | 
CCCNC(=O)c1cc(-c2cnc(N3CCCC3)nc2)cn1C |  | pIC50 [1]: 4.78 and 4.438
CCn1nc(C)c2nc(C(C)C)nc(NCC(C)O)c21 (centres undefined) | > 50.1 | 
O=C1COC2(CCN(S(=O)(=O)C3CC3)CC2)CN1c1cccnc1 | > 50.1 | 
Cn1ncc(C(=O)N2CCN(S(C)(=O)=O)CC2)c1Cl | > 25.1 | 

Structure (SMILES) | IC50 [1] [µM] | further results
CCc1ccc(NC(=O)C(C)Nc2cccc3c2OCCO3)cc1 (centres undefined) |  | pIC50 [1]: 5.373 and 4.972
CCc1nc(C)cn1C(=O)Nc1ccccc1 | 5.1 | 
CC(NC(=O)c1ccc(Cl)cc1)c1nnc(SCC(=O)O)n1C (centres undefined) | 29.3 | 
CS(=O)(=O)Nc1ccccc1CNC(=O)c1ccoc1 | > 50.1 | 
CC(C)S(=O)(=O)N1CCN(C(=O)c2cnn(C)c2Cl)CC1 | > 50.1 | 
COC(=O)c1ccc2c(c1)CCCN2S(=O)(=O)c1cn(C)c(C)n1 | 7.21 | 
CC(=O)N1N=C(c2cccnc2)CC1c1ccco1 (centres undefined) | > 50.1 | 
CN(Cc1nccs1)c1nc(-c2ccccn2)nc2c1CCNCC2 |  | pIC50 (Plasmodium falciparum): 6.065; IC50 (Plasmodium falciparum; Plasmodium falciparum): 0.882 µM; Percent Effect (Schistosoma mansoni): -21.71%
CCn1c(NCc2ccc(OC)cc2)nc2c(C)nn(C)c2c1=O | > 50.1 | 
CCCc1nc(NCCOC)c2c(n1)c(C)nn2CC | > 50.1 | 
CCNc1ncc2c(n1)CN(c1ccc(C)c(C)c1)C2=O | > 50.1 | 
Cc1ccc(CN2Cc3nnn(C)c3C(COCc3ccccc3)C2)s1.O=C(O)C(F)(F)F (centres undefined) | 7.69 | pIC50 [1]: 4.987
Cc1cc(=O)cc(C(=O)NCCC(C)n2ccnc2)o1 (centres undefined) | > 50.1 | 
NCCc1cc(C(F)(F)F)ccn1 | > 50.1 | 
NC(=O)N1CCCCCC1C1CCNCC1 (centres undefined) | > 50.1 | 
Cc1c(-c2cc(C(F)(F)F)nc(N3CCC(N)CC3)n2)cnn1C | 4.18 | pIC50 [1]: 5.176
CCc1cc(=O)[nH]c(-c2ccc(NCCc3ccc(O)cc3)nc2)n1 | 1.18 | 
COc1cc2cc(C(=O)NCC(=O)O)n(C)c2c(OC)c1OC | > 50.1 | 
CC(C)(C(=O)N1CCC(N)CC1)c1cccc(F)c1 | > 50.1 | 
CSCc1ccc(C(=O)N(C)Cc2cnccn2)o1 | > 50.1 | 
CCOc1ccc(C(=O)N2CCC(N)CC2)cc1 | > 50.1 | 
Cn1nnnc1SCCNC(=O)c1cc(Cl)ccc1F | > 50.1 | 
O=C(N[C@H]1COC[C@@H]1N1CCCCC1)c1cnc[nH]1 | > 50.1 | 

Structure (SMILES) | IC50 [1] [µM] | further results
Cc1cnn(CC2CCCN2Cc2coc(-c3ccccc3)n2)c1 (centres undefined) |  | Percent Effect (Schistosoma mansoni): -1.507%; IC50 [2]: > 50.1 µM; IC50 [3]: 22.6 µM
CC(C)Cn1cc(NC(=O)N2CCC(O)C2)cn1 (centres undefined) | > 50.1 | 
COc1cc2nc(NCc3scnc3C)nc(N)c2cc1OC | 15.6 | 
NC1CCCCNC1=O (centres undefined) | > 50.1 | 
CCN1C[C@H](NC(=O)c2snnc2C(C)C)[C@@H](OC)C1 | > 50.1 | 
O=C1c2ccc(F)cc2C(=O)N1Cc1nnsc1Cl | > 50.1 | 
O=C(CC(F)(F)F)NC1CCN(CC2CC2)C1 (centres undefined) | > 50.1 | 
CCc1cnc(N2CCNCC2)s1 | > 50.1 | 
CCCc1nnsc1C(=O)NCC1CCN(c2ccccn2)CC1 |  | Percent Effect (Schistosoma mansoni): -128.4%; IC50 [2]: 30.8 µM; IC50 [3]: > 50.1 µM
CCCn1c(N2CCCCC2)nc2c(C)nn(C)c2c1=O | 34.4 | 
Cc1nc(C2(NCc3c(C)nn(C)c3N3CCOCC3)CCC2)no1 | 25.3 | 
CC(=O)N1CC2(CCCN(Cc3ccc(Cl)cc3)C2)Cc2ccccc21 (centres undefined) | 10.4 | pIC50 [1]: 4.953
O=C(NCCc1ncc[nH]1)c1cccnc1SC(F)F | > 50.1 | 
CCCc1nc(CN(CC)C(=O)c2onc3ccccc23)no1 | > 50.1 | 
OCC1CCCN1c1cc(NCCc2c[nH]c3ccccc23)ncn1 (centres undefined) |  | Percent Effect (Schistosoma mansoni): 50.05%; IC50 [2]: 12.9 µM; IC50 [3]: 21.4 µM
COc1ccc(C2CCCN2S(=O)(=O)N(C)CC(C)C)cc1 (centres undefined) |  | Percent Effect (Schistosoma mansoni): 29.94%; IC50 [2]: 13.2 µM; IC50 [3]: 31.2 µM
O=C(Nc1cccnc1)N1CCC(n2ccc(C(F)(F)F)n2)CC1 |  | Percent Effect (Schistosoma mansoni): -86.87%; IC50 [2]: > 50.1 µM; IC50 [3]: 1.07 µM
NS(=O)(=O)N1CCc2ccc(NC(=O)Cc3ccc(F)cc3)cc21 |  | Percent Effect (Schistosoma mansoni): -30.69%; IC50 (ClpP1P2): 27.5 µM
Cc1cc(N(C)Cc2cc(C)on2)n2nc(C)c(C)c2n1 |  | Percent Effect (Schistosoma mansoni): -4.677%; IC50 [2]: 33.7 µM; IC50 [3]: 13.5 µM
Cn1ncc2c(NCCC34CCCN3CCC4)nc(C3CCCC3)nc21 |  | Percent Effect (Schistosoma mansoni): 79%; IC50 [2]: 26.8 µM; IC50 [3]: 42.3 µM
CN(CCc1cccs1)C1CCCN(Cc2noc(C3CC3)n2)C1 (centres undefined) |  | Percent Effect (Schistosoma mansoni): -35.96%; IC50 [2]: > 50.1 µM; IC50 [3]: > 50.1 µM
O=C(c1ccc(Br)o1)N1CCN(Cc2ccc(OC(F)(F)F)cc2)CC1 |  | Percent Effect (Schistosoma mansoni): 71.06%; IC50 [2]: 40.6 µM; IC50 [3]: 27.8 µM
O=C(NC1CCCC1)N1CCCC(c2nccn2Cc2ccncc2)C1 (centres undefined) |  | Percent Effect (Schistosoma mansoni): -2.761%; IC50 [2]: > 50.1 µM

Structure (SMILES) | IC50 [1] [µM] | further results
O=C(CSc1nncs1)N1CCN(Cc2ccc(Cl)s2)CC1 |  | Percent Effect (Schistosoma mansoni): -37.37%; IC50 [2]: 41.1 µM; IC50 [3]: 48.2 µM
CCc1c(C)sc(NC(=O)CN2CCN(CC)CC2)c1C(=O)OC |  | Percent Effect (Schistosoma mansoni): 98.89%; IC50 [2]: 15.4 µM; IC50 [3]: 2.52 µM
O=C(NCC1CCN(C(=O)c2ccoc2)CC1)c1ccccc1Br |  | Percent Effect (Schistosoma mansoni): -0.2634%
CCCS(=O)(=O)Nc1ccc2c(c1)OCC(C)(C)C(=O)N2C |  | Percent Effect (Schistosoma mansoni): 7.848%
CSCCCNC(=O)Nc1cccc(-c2nccn2C)c1 |  | Percent Effect (Schistosoma mansoni): -33.04%
Cc1cccnc1CN1CCC(c2nnc(Cn3cccn3)n2C)CC1 |  | Percent Effect (Schistosoma mansoni): -11.55%
CC1(NC(=O)Cc2csc(C(C)(C)C)n2)CCS(=O)(=O)C1 (centres undefined) |  | Percent Effect (Schistosoma mansoni): -25.94%
CSCCCN1CCn2nc(CNC(C)=O)cc2C1 |  | Percent Effect (Schistosoma mansoni): -25.09%
Cc1c[nH]c(CN(C)c2nc(C3CCCC3)nc3c2cnn3C)n1 |  | Percent Effect (Schistosoma mansoni): -22.17%
CC[C@@]1(O)CCN(C(=O)c2ccc(-c3cccc(F)c3)cc2)C[C@H]1O |  | Percent Effect (Schistosoma mansoni): 16.9%
O=C(CCc1nccs1)N1CCC(N2CCNC2=O)CC1 |  | Percent Effect (Schistosoma mansoni): -51.15%
O=C1CCC2(CCN(Cc3cc(F)cc(F)c3)CC2)CN1CCO |  | Percent Effect (Schistosoma mansoni): 4.054%
CCCOc1ccc(NC(=O)NCCC(=O)N(C)C)cc1Cl |  | Percent Effect (Schistosoma mansoni): -22.9%
Brc1cc2c(cc1CN1CCC(N3CCCCC3)CC1)OCCO2 |  | Percent Effect (Schistosoma mansoni): -13%; IC50 [2]: > 50.1 µM; IC50 [3]: 19.9 µM
COc1cc(CN2CCN(c3cccc(OC)c3)C(=O)C2)cc(OC)c1 |  | Percent Effect (Schistosoma mansoni): -47.17%
CCn1nc2c(cc1=O)CN(Cc1nc(N)c3ccccc3n1)CC2 |  | Percent Effect (Schistosoma mansoni): -40.99%
CS(=O)(=O)c1ccc(CNCC2CCN(CCO)CC2)cc1 |  | Percent Effect (Schistosoma mansoni): -49.34%
O=C(CCc1ccc(O)cc1)N1CCC(Cc2ccc(CO)cc2)C1 (centres undefined) |  | Percent Effect (Schistosoma mansoni): 16.91%
CN(Cc1ccccc1)CC1(O)CCCN(CC(C)(C)C)C1=O (centres undefined) |  | Percent Effect (Schistosoma mansoni): 9.775%
CC(C)C(=O)N1CCN(C(=O)c2cc(C(C)C)on2)[C@H]2CS(=O)(=O)C[C@H]21 |  | Percent Effect (Schistosoma mansoni): -39.14%
